# Biological target: DNA-PK (Homo sapiens (Human), UniProt P78527)
# Assay: DNA-PK/biochemical assay (FlashPlate kinase assay)
# Details: 5 μM ATP, 90 min, room temperature
# Protocol: The kinase assay was carried out in streptavidin-coated […] microtitre FlashPlates®. To this end, 1.5 μg of the DNA-PK/protein complex and 100 ng of biotinylated substrate, such as, for example, PESQEAFADLWKK biotin-NH2 (“biotin-DNA-PK peptide”), in a total volume of 36.5 μl (34.25 mM HEPES/KOH, 7.85 mM Tris-HCl, 68.5 mM KCl, 5 μM ATP, 6.85 mM MgCl2, 0.5 mM EDTA, 0.14 mM EGTA, 0.69 mM DTT, pH 7.4), were incubated at room temperature for 90 min with 500 ng of DNA from calf thymus, 0.1 μCi of 33P-ATP and 1.8% of DMSO per well with or without the test compound. The reaction was stopped using 50 μl/well of 200 mM EDTA. After incubation for a further 30 min at room temperature, the liquid was removed. Each well was washed three times with 100 μl of 0.9% sodium chloride solution. A non-specific reaction (blank value) was determined using 10 μM of a proprietary kinase inhibitor. The radioactivity measurement was carried out by means of a TopCount. IC50 values were calculated in RS1 (Kashishian et al. (2003) Molecular Cancer Therapeutics 1257).
row,IC50 [nM],SMILES
1,< 100,"COc1cc2ncc3[nH]c(=O)n(-c4ccc(C#N)cc4)c3c2cc1OC [Compound 1, 4-(7,8-Dimethoxy-2-oxo-2,3-dihydroimidazo[4,5-c]quinolin-1-yl)benzonitrile]"
2,100 to 500,"COCCNC(=O)C(Oc1cc2c(cc1OC)ncc1c2n(-c2ccc(C#N)cc2F)c(=O)n1C)c1ccc(F)cc1 (stereo not drawn) [Compound 16, 2-[1-(4-Cyano-2-fluorophenyl)-7-methoxy-3-methyl-2-oxo-2,3-dihydro-1H-imidazo[4,5-c]-quinolin-8-yloxy]-2-(4-fluoro-phenyl)-N-(2-methoxyethyl)-acetamide]"
3,< 100,"COc1cc2ncc3c(c2cc1OCc1ccc(F)cc1Br)n(-c1ccc(C#N)cc1F)c(=O)n3C [Compound 22, 4-[8-(2-Bromo-4-fluorobenzyloxy)-7-methoxy-3-methyl-2-oxo-2,3-clihydro-imidazo[4,5-c]quinolin-1-yl]-3-fluorobenzonitrile]"
4,< 100,"COc1cc2ncc3c(c2cc1O)n(-c1ccc(C#N)cc1F)c(=O)n3C [Compound 4, 3-Fluoro-4-(8-hydroxy-7-methoxy-3-methyl-2-oxo-2,3-dihydroimidazo[4,5-c]quinolin-1-yl)benzonitrile]"
5,< 100,"COc1cc2ncc3c(c2cc1OCc1ccccc1Br)n(-c1ccc(C#N)cc1F)c(=O)n3C [Compound 21, 4-[8-(2-Bromobenzyloxy)-7-methoxy-3-methyl-2-oxo-2,3-dihydroimidazo[4,5-c]quinolin-1-yl]-3-fluorobenzonitrile]"
6,100 to 500,"COc1cc2ncc3c(c2cc1/C=C/c1ccccc1)n(-c1ccc(C#N)cc1F)c(=O)n3C [Compound 43, 3-Fluoro-4-[7-methoxy-3-methyl-2-oxo-8-((E)-styryl)-2,3-dihydroimidazo[4,5-c]quinolin-1-yl]benzonitrile]"
7,100 to 500,"COc1cc2ncc3c(c2cc1OCc1sccc1S(=O)(=O)N1CCOCC1)n(-c1ccc(C#N)cc1F)c(=O)n3C [Compound 19, 3-Fluoro-4-{7-methoxy-3-methyl-8-[3-(morpholine-4-sulfonyl)-thiophen-2-ylmethoxy]-2-oxo-2,3-dihydro-1H-imidazo[4,5-c]-quinolin-1-yl}benzonitrile]"
8,100 to 500,"COc1cc2ncc3c(c2cc1OC(CN)c1cccs1)n(-c1ccc(C#N)cc1F)c(=O)n3C (stereo not drawn) [Compound 31, 4-[8-(2-Amino-1-thiophen-2-ylethoxy)-7-methoxy-3-methyl-2-oxo-2,3-dihydroimidazo-[4,5-c]quinolin-1-yl]-3-fluorobenzonitrile]"
9,< 100,"COc1cc2ncc3c(c2cc1-c1cnc2ccccc2c1)n(-c1ccc(C#N)cc1F)c(=O)n3C [Compound 35, 3-Fluoro-4-(7-methoxy-3-methyl-2-oxo-8-quinolin-3-yl-2,3-dihydroimidazo[4,5-c]quinolin-1-yl)benzonitrile]"
10,100 to 500,"COc1cc2ncc3c(c2cc1CCc1ccsc1)n(-c1ccc(C#N)cc1F)c(=O)n3C [Compound 42, 3-Fluoro-4-[7-methoxy-3-methyl-2-oxo-8-(2-thiophen-3-ylethyl)-2,3-dihydroimidazo[4,5-c]-quinolin-1-yl]benzonitrile]"
11,< 100,"COc1cc2ncc3c(c2cc1OCc1ccccc1)n(-c1c(F)cc(C#N)cc1F)c(=O)n3C [Compound 11, 4-(8-Benzyloxy-7-methoxy-3-methyl-2-oxo-2,3-dihydro-imidazo[4,5-c]quinolin-1-yl)-3,5-difluorobenzonitrile]"
12,< 100,"COc1cc2ncc3c(c2cc1OC(C(N)=O)c1ccccc1)n(-c1ccc(C#N)cc1F)c(=O)n3C (stereo not drawn) [Compound 18, 2-[1-(4-Cyano-2-fluorophenyl)-7-methoxy-3-methyl-2-oxo-2,3-dihydro-1H-imidazo[4,5-c]-quinolin-8-yloxy]-2-phenyl-acetamide]"
13,< 100,"COc1cc2ncc3c(c2cc1OCc1ccccc1)n(-c1ccc(C#N)cc1F)c(=O)n3C [Compound 9, 4-(8-Benzyloxy-7-methoxy-3-methyl-2-oxo-2,3-dihydro-imidazo[4,5-c]quinolin-1-yl)-3-fluorobenzonitrile]"
14,< 100,"COc1cc2ncc3c(c2cc1-c1cn[nH]c1)n(-c1ccc(C#N)cc1F)c(=O)n3C [Compound 37, 3-Fluoro-4-[7-methoxy-3-methyl-2-oxo-8-(1H-pyrazol-4-yl)-2,3-dihydroimidazo[4,5-c]quinolin-1-yl)benzonitrile]"
15,100 to 500,"COc1cc2ncc3c(c2cc1-c1ccnn1C)n(-c1ccc(C#N)cc1F)c(=O)n3C [Compound 38, 3-Fluoro-4-[7-methoxy-3-methyl-8-(2-methyl-2H-pyrazol-3-yl)-2-oxo-2,3-dihydroimidazo[4,5-c]-quinolin-1-yl)benzonitrile]"
16,< 100,"COC(=O)n1c(=O)n(-c2ccc(C#N)cc2F)c2c3cc(OCc4ccccc4)c(OC)cc3ncc21 [Compound 12, Methyl 8-benzyloxy-1-(4-cyano-2-fluorophenyl)-7-methoxy-2-oxo-1,2-dihydroimidazo[4,5-c]-quinoline-3-carboxylate]"
17,< 100,"COc1cc2ncc3c(c2cc1O)n(-c1c(F)cc(C#N)cc1F)c(=O)n3C [Compound 5, 3,5-Difluoro-4-(8-hydroxy-7-methoxy-3-methyl-2-oxo-2,3-dihydroimidazo[4,5-c]quinolin-1-yl)benzonitrile]"
18,< 100,"COc1cc2ncc3c(c2cc1OC(C(N)=O)c1ccc(F)cc1)n(-c1ccc(C#N)cc1F)c(=O)n3C (stereo not drawn) [Compound 15, 2-[1-(4-Cyano-2-fluorophenyl)-7-methoxy-3-methyl-2-oxo-2,3-dihydro-1H-imidazo[4,5-c]-quinolin-8-yloxy]-2-(4-fluoro-phenyl)acetamide]"
19,< 100,"COc1cc2ncc3c(c2cc1-c1cnn(C)c1)n(-c1ccc(C#N)cc1F)c(=O)n3C [Compound 36, 3-Fluoro-4-[7-methoxy-3-methyl-8-(1-methyl-1H-pyrazol-4-yl)-2-oxo-2,3-dihydroimidazo[4,5-c]-quinolin-1-yl]benzonitrile]"
20,< 100,"COc1cc2ncc3c(c2cc1OCc1ccsc1)n(-c1c(F)cc(C#N)cc1F)c(=O)n3C [Compound 26, 3,5-Difluoro-4-(7-methoxy-3-methyl-2-oxo-8-(thiophen-3-ylmethoxy)-2,3-dihydroimidazo-[4,5-c]quinolin-1-yl)benzonitrile]"
21,< 100,"COc1ccc(-c2cc3c(cc2OC)ncc2c3n(-c3ccc(C#N)cc3F)c(=O)n2C)cn1 [Compound 34, 3-Fluoro-4-[7-methoxy-8-(6-methoxypyridin-3-yl)-3-methyl-2-oxo-2,3-dihydroimidazo[4,5-c]-quinolin-1-yl)benzonitrile]"
22,< 100,"COc1cc2ncc3c(c2cc1OCc1cncs1)n(-c1ccc(C#N)cc1F)c(=O)n3C [Compound 30, 3-Fluoro-4-[7-methoxy-3-methyl-2-oxo-8-(thiazol-5-ylmethoxy)-2,3-dihydroimidazo[4,5-c]-quinolin-1-yl)benzonitrile]"
23,< 100,"COc1cc2ncc3[nH]c(=O)n(-c4ccc(C#N)cc4F)c3c2cc1OCc1ccccc1 [Compound 8, 4-(8-Benzyloxy-7-methoxy-2-oxo-2,3-dihydroimidazo-[4,5-c]quinolin-1-yl)-3-fluorobenzonitrile]"
24,100 to 500,"COc1cc2ncc3c(c2cc1-c1cc(C(F)(F)F)nn1C)n(-c1ccc(C#N)cc1F)c(=O)n3C [Compound 40, 3-Fluoro-4-[7-methoxy-3-methyl-8-(2-methyl-5-trifluoromethyl-2H-pyrazol-3-yl)-2-oxo-2,3-dihydro-imidazo[4,5-c]quinolin-1-yl]-benzonitrile]"

# Reference: patent US9000153B2, “Imidazo[4,5-c]quinolines as DNA-PK inhibitors” (Merck Patent GmbH, priority 2010, dated 2015)
